Values joined by “and” are separate entries in the source; they are usually repeats but may differ in a detail not shown here. Identical values can stand only once.
Key:
P-gp [1] = biological target: T1, P-gp (Homo sapiens, UniProt P08183); assay: Rh123 accumulation in Caco-2 cells; format: cell-based; conditions: for Percentage of rhodamine 123 accumulation relative to vehicle treatment: positive = increase; for More Rh123 accumulation than verapamil alone: verapamil 200 μmol/L plus CLA 5 μmol/L
T1 construct: three cells expressing P-gp, Caco-2, KBv and rat brain microvessel endothelial cells (RBMEC); endogenous in cells; host or cells: Caco-2
T1 sequence (P08183 whole entry): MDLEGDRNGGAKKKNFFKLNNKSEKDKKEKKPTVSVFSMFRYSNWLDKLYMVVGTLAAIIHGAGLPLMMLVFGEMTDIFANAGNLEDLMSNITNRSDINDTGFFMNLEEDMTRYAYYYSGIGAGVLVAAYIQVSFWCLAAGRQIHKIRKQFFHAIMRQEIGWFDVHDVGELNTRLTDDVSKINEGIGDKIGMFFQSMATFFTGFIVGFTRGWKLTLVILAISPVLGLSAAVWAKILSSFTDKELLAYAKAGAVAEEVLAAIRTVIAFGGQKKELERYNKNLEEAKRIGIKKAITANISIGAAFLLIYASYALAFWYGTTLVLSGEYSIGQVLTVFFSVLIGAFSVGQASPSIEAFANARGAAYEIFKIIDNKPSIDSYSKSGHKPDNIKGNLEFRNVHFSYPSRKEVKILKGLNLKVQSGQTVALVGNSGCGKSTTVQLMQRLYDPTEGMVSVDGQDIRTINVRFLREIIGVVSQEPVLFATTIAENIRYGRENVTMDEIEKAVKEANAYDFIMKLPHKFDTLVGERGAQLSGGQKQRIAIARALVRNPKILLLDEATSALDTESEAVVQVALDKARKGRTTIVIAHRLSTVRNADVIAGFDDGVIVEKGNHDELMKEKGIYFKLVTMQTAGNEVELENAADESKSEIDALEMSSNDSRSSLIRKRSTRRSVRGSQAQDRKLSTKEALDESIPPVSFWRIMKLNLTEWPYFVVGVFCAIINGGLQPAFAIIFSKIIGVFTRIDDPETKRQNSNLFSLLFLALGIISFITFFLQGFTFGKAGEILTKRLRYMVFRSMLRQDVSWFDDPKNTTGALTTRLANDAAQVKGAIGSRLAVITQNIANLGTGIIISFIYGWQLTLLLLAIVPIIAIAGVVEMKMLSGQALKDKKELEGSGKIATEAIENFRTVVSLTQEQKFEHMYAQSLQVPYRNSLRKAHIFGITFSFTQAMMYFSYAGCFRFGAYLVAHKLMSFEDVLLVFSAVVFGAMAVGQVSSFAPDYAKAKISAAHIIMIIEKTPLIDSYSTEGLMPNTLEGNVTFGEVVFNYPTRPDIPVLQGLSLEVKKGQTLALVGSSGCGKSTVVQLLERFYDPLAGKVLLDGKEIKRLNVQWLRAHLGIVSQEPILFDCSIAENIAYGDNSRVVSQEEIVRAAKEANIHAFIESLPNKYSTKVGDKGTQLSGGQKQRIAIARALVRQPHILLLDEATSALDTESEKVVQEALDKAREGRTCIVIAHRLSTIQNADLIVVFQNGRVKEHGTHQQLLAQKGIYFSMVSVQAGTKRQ
Procedure: Caco-2 cells were seeded onto 6-well plates at a density of 5 × 10^5 cells/well and maintained in MEM supplemented with 10% (v/v) FBS, 1% (v/v) NEAA, 100 units/mL penicillin and 100 μg/mL streptomycin sulphate in a humidified 37°C incubator with 5% CO2. Upon 80%–90% confluence, the cells were provided new complete medium (2 mL/well) and exposed, to vehicle, (−)CLA (1 or 5 μmol/L), (+)CLA (1 or 5 μmol/L), verapamil (200 μmol/L) or individual enantiomer (1 or 5 μmol/L) plus verapamil (200 μmol/L). Then, Rh123 (5 μmol/L) was added to all the wells. After incubation at 37°C and 5% CO2 for 2 h which was designed by the pharmacokinetic parameters of CLA enantiomers, the cells were washed 3 times with 2 mL of ice-cold PBS (pH 7.4), lysed in 400 μL of lysis buffer [50 mmol/L Tris-HCl (pH 8.0), 150 mmol/L NaCl, 0.1% SDS, 100 μg/mL PMSF, 1 μg/mL aprotinin and 1% Nonidet P-40], and then were placed on ice for 40 min. The plates were wrapped in tinfoil. The fluorescence of Rh123 in each well was detected by Spectra Max Gemini XS plate reader (Molecular Devices Corp., Sunnyvale, CA, USA) with excitation and emission wavelengths of 488 nm and 530 nm, respectively. Meanwhile, 10 μL of cell lysates were collected from each well to measure protein concentration using Lowry’s method. Intracellular Rh123 accumulation was normalized by protein concentration (mg/mL) and then was calculated by a standard curve of Rh123 at three concentrations (2.5–10 μmol/L), in parallel with the lysis experiment.

P-gp [2] = biological target: T1, P-gp; assay: Rh123 accumulation in KBv cells; format: cell-based; conditions: for Percentage of rhodamine 123 accumulation relative to vehicle treatment: positive = increase; for Effect on P-gp efflux activity when combined with verapamil (in words): higher concentration CLA 10 μmol/L plus verapamil 200 μmol/L
Procedure: KB or its vinblastine-resistance derivative KBv cells[19] were maintained on 6-well plates (5 × 10^5 cells/well) in […] medium with 10% FBS, 100 units/mL penicillin and 100 μg/mL streptomycin sulphate at 37°C with 95% air and 5% CO2. After reaching 80%–90% confluence, the two cells were treated with the following agents, respectively: vehicle; (−)CLA (5 or 10 μmol/L); (+)CLA (5 or 10 μmol/L). Additionally, the KBv cells were treated with verapamil (200 μmol/L); or individual enantiomer (5 or 10 μmol/L) plus verapamil (200 μmol/L). Rh123 (5 μmol/L) were finally added to these wells. Subsequently, cell incubation, solubilisation and Rh123 accumulation were performed by using the same method for Caco-2 cells.

[3] = design: method as in PMID 23684935; conditions: rabbits; oral dose of 100 mg/kg; cited from earlier work
[4] = high dose, CLA 5 μmol/L, Rh123 5 μmol/L, 2 h
[5] = low dose, CLA 1 μmol/L, Rh123 5 μmol/L, 2 h
[6] = high dose, CLA 10 μmol/L, Rh123 5 μmol/L
[7] = low dose, CLA 5 μmol/L, Rh123 5 μmol/L

Row | SMILES | Decrease of Rh123 intracellular accumulation relative to vehicle control (P-gp [1]; CLA 1 μmol/L, Rh123 5 μmol/L, 2 h) [%] | Reduction of Rh123 intracellular concentration relative to verapamil treatment alone (P-gp [1]; co-treatment CLA 1 μmol/L with verapamil 200 μmol/L) [%] | Percentage of rhodamine 123 accumulation relative to vehicle treatment (P-gp [1]; [4]) | Percentage of rhodamine 123 accumulation relative to vehicle treatment (P-gp [1]; [5]) | More Rh123 accumulation than verapamil alone (P-gp [1]) [%] | Percentage of rhodamine 123 accumulation relative to vehicle treatment (P-gp [2]; [6]) | Effect on P-gp efflux activity when combined with verapamil (in words) (P-gp [2]) | Antagonism of the inhibition of verapamil to P-gp relative to verapamil treatment alone (P-gp [2]; low concentration CLA 5 μmol/L plus verapamil 200 μmol/L) [%] | Percentage of rhodamine 123 accumulation relative to vehicle treatment (P-gp [2]; [7]) | Decrease of Rh123 intracellular accumulation vs. control (P-gp [2]; lower concentration, CLA 5 μmol/L, Rh123 5 μmol/L) [%] | AUC0–8 h in the portal vein [3] [µg·h/mL]
1 | CN1C(=O)[C@H](O)[C@@H](c2ccccc2)[C@H]1[C@H](O)c1ccccc1 [(+)CLA, 3R,4S,5S,6R-CLA] | 11.7 | 29.3 | 58.2% and 58.22% | -11.68% | 23.1 | 24.5% and 24.49% | synergistic effect | 35.5 | -25.92% | 25.9 | 2453 ± 1101
2 | CN1C(=O)[C@@H](O)[C@H](c2ccccc2)[C@@H]1[C@@H](O)c1ccccc1 [(−)CLA, 3S, 4R, 5R, 6S-clausenamide] |  |  | 63.0% and 62.97% | 28.5% and 28.51% | 24.2 | 30.0% | synergistic effect |  | 8.2% and 8.16% |  | 1001 ± 487
